Results from patent publication US20060148858A1, “1, 2-Azole derivatives with hypoglycemic and hypolipidemic activity” (priority 2002, published 2006).

melting point [°C]	SMILES
128 to 129	O=C(O)CCCc1cccc(OCc2cn(-c3ccc(C(F)(F)F)cn3)nc2C2CCCCC2)c1 [Example 195, 4-(3-{3-cyclohexyl-1-[5-(trifluoromethyl)-2-pyridyl]-1H-pyrazol-4-yl}methoxyphenyl)butanoic acid]
125 to 126	CCCCc1nn(-c2ccc(C(F)(F)F)cn2)cc1CCCOc1nn(C)cc1CC(=O)O [Example 199, [3-(3-{3-butyl-1-[5-(trifluoromethyl)-2-pyridyl]-1H-pyrazol-4-yl}propoxy)-1-methyl-1H-pyrazol-4-yl]acetic acid]
105 to 106	CCCCc1nn(-c2ccc(C(F)(F)F)cn2)cc1CCCOc1cc(CC(=O)O)ccc1OCC [Example 202, [3-(3-{3-butyl-1-[5-(trifluoromethyl)-2-pyridyl]-1H-pyrazol-4-yl}propoxy)-4-ethoxyphenyl]acetic acid]
109 to 110	COc1cc(CC(=O)O)cc(OCCCc2cn(-c3ccc(C(F)(F)F)cn3)nc2C(C)C)c1 [Example 203, [3-(3-{3-isopropyl-1-[5-(trifluoromethyl)-2-pyridyl]-1H-pyrazol-4-yl}propoxy)-5-methoxyphenyl]acetic acid]
143 to 144	COc1ccc(CC(=O)O)c(OCCCc2cn(-c3ccc(C(F)(F)F)cn3)nc2C(C)C)c1 [Example 205, [2-(3-{3-isopropyl-1-[5-(trifluoromethyl)-2-pyridyl]-1H-pyrazol-4-yl}propoxy)-4-methoxyphenyl]acetic acid]
143 to 144	COc1ccc(OCCCc2cn(-c3ccc(C(F)(F)F)cn3)nc2C(C)C)c(CC(=O)O)c1 [Example 206, [2-(3-{3-isopropyl-1-[5-(trifluoromethyl)-2-pyridyl]-1H-pyrazol-4-yl}propoxy)-5-methoxyphenyl]acetic acid]
183 to 184	COc1cccc(OCCCc2cn(-c3ccc(C(F)(F)F)cn3)nc2C(C)C)c1CC(=O)O [Example 208, [2-(3-{3-isopropyl-1-[5-(trifluoromethyl)-2-pyridyl]-1H-pyrazol-4-yl}propoxy)-6-methoxyphenyl]acetic acid]
105 to 106	CCCc1nn(-c2ccc(C(F)(F)F)cn2)cc1CCCOc1c(F)cccc1CC(=O)O [Example 211, [3-fluoro-2-(3-{3-propyl-1-[5-(trifluoromethyl)-2-pyridyl]-1H-pyrazol-4-yl}propoxy)phenyl]acetic acid]
134 to 135	CCC(C)c1nn(-c2ccc(C(F)(F)F)cn2)cc1CCCOc1c(C)cccc1CC(=O)O (stereo not drawn) [Example 219, [3-methyl-2-(3-{3-(1-methylpropyl)-1-[5-(trifluoromethyl)-2-pyridyl]-1H-pyrazol-4-yl}propoxy)phenyl]acetic acid]
144 to 145	CC(C)c1nn(-c2ccc(C(F)(F)F)cn2)cc1CCCOc1c(C#N)cccc1CC(=O)O [Example 231, [3-cyano-2-(3-{3-isopropyl-1-[5-(trifluoromethyl)-2-pyridinyl]-1H-pyrazol-4-yl}propoxy)phenyl]acetic acid]
146 to 147	CCCc1nn(-c2ccc(C(F)(F)F)cn2)cc1CCCOc1c(C#N)cccc1CC(=O)O [Example 233, [3-cyano-2-(3-{3-propyl-1-[5-(trifluoromethyl)-2-pyridinyl]-1H-pyrazol-4-yl}propoxy)phenyl]acetic acid]
138 to 139	CCCc1cn(CC(=O)O)nc1OCCCc1cn(-c2ccc(C(F)(F)F)cn2)nc1CCC [Example 254, [4-propyl-3-(3-{3-propyl-1-[5-(trifluoromethyl)-2-pyridyl]-1H-pyrazol-4-yl}propoxy)-1H-pyrazol-1-yl]acetic acid]
164 to 165	CCCc1nn(-c2ccc(C(F)(F)F)cn2)cc1CCCOc1cc(CCC(=O)O)n(C2CCCCC2)n1 [Example 256, 3-[1-cyclohexyl-3-(3-{3-propyl-1-[5-(trifluoromethyl)-2-pyridyl]-1H-pyrazol-4-yl}propoxy)-1H-pyrazol-5-yl]propanoic acid]
89 to 90	CCOc1nn(-c2ccc(C(F)(F)F)cn2)cc1CCCOc1cc(CCC(=O)O)n(C2CCCCC2)n1 [Example 257, 3-[1-cyclohexyl-3-(3-{3-ethoxy-1-[5-(trifluoromethyl)-2-pyridyl]-1H-pyrazol-4-yl}propoxy)-1H-pyrazol-5-yl]propanoic acid]
190 to 191	O=C(O)CCc1cc(OCCCc2cn(-c3ccc(C(F)(F)F)cn3)nc2C2CCCCC2)nn1C1CCCCC1 [Example 261, 3-[1-cyclohexyl-3-(3-{3-cyclohexyl-1-[5-(trifluoromethyl)-2-pyridyl]-1H-pyrazol-4-yl}propoxy)-1H-pyrazol-5-yl]propanoic acid]
166 to 167	CC(C)c1nn(-c2ccc(C(F)(F)F)cn2)cc1CCCOc1cc(CCC(=O)O)n(C2CCCCC2)n1 [Example 262, 3-[1-cyclohexyl-3-(3-{3-isopropyl-1-[5-(trifluoromethyl)-2-pyridyl]-1H-pyrazol-4-yl}propoxy)-1H-pyrazol-5-yl]propanoic acid]
143 to 144	Cc1nn(-c2ccc(C(F)(F)F)cn2)cc1CCCOc1cc(CC(=O)O)n(C)n1 [Example 283, [1-methyl-3-(3-{3-methyl-1-[5-(trifluoromethyl)-2-pyridinyl]-1H-pyrazol-4-yl}propoxy)-1H-pyrazol-5-yl]acetic acid]
128 to 130	CCOc1nn(-c2cc(C(F)(F)F)ccn2)cc1CCCOc1cccc(CC(=O)O)c1 [Example 286, [3-(3-{3-ethoxy-1-[4-(trifluoromethyl)-2-pyridinyl]-1H-pyrazol-4-yl}propoxy)phenyl]acetic acid]

Further lines, the compound ahead of its results:

SMILES	melting point [°C]
COc1cccc(CC(=O)O)c1OCCCc1cn(-c2nnc(C(F)(F)F)s2)nc1C(C)C [Example 194, [3-methoxy-2-(3-{3-(1-methylethyl)-1-[5-(trifluoromethyl)-1,3,4-thiadiazole-2-yl]-1H-pyrazol-4-yl}propoxy)phenyl]acetic acid]	144 to 145
CCc1cccc(CC(=O)O)c1OCCCc1cn(-c2ccc(Cl)cn2)nc1C(C)C [Example 243, (2-{3-[1-(5-chloro-2-pyridinyl)-3-isopropyl-1H-pyrazol-4-yl]propoxy}-3-ethylphenyl)acetic acid]	142 to 143
CCc1cccc(CC(=O)O)c1OCCCc1cn(-c2ncc(C(F)(F)F)cc2Cl)nc1C(C)C [Example 249, [2-(3-{1-[3-chloro-5-(trifluoromethyl)-2-pyridinyl]-3-isopropyl-1H-pyrazol-4-yl}propoxy)-3-ethylphenyl]acetic acid]	93 to 95
CCc1cccc(CC(=O)O)c1OCCCc1cn(-c2ncc(Cl)cc2Cl)nc1C(C)C [Example 251, (2-{3-[1-(3,5-dichloro-2-pyridinyl)-3-isopropyl-1H-pyrazol-4-yl]propoxy}-3-ethylphenyl)acetic acid]	93 to 95
CC(C)c1nn(-c2ccc(C(F)(F)F)cn2)cc1CCCOc1cc(CCC(=O)O)n(C(C)C)n1 [Example 263, 3-[1-isopropyl-3-(3-{3-isopropyl-1-[5-(trifluoromethyl)-2-pyridyl]-1H-pyrazol-4-yl}propoxy)-1H-pyrazol-5-yl]propanoic acid]	130 to 131
COc1cccc(CC(=O)O)c1OCCCc1cn(-c2ccc(NC(C)=O)cn2)nc1C(C)C [Example 265, (2-{3-[1-(5-acetylamino-2-pyridyl)-3-isopropyl-1H-pyrazol-4-yl]propoxy}-3-methoxyphenyl)acetic acid]	158 to 159
CCC(=O)Nc1ccc(-n2cc(CCCOc3c(CC(=O)O)cccc3OC)c(C(C)C)n2)nc1 [Example 266, (3-methoxy-2-{3-[3-isopropyl-1-(5-propanoylamino-2-pyridyl)-1H-pyrazol-4-yl]propoxy}phenyl)acetic acid]	147 to 148
CCCC(=O)Nc1ccc(-n2cc(CCCOc3c(CC(=O)O)cccc3OC)c(C(C)C)n2)nc1 [Example 267, (2-{3-[1-(5-butyrylamino-2-pyridyl)-3-isopropyl-1H-pyrazol-4-yl]propoxy}-3-methoxyphenyl)acetic acid]	119 to 120
COc1cccc(CC(=O)O)c1OCCCc1cn(-c2ccc(NC(=O)C(C)C)cn2)nc1C(C)C [Example 268, [3-methoxy-2-(3-{3-isopropyl-1-[5-(2-methylpropanoylamino)-2-pyridyl]-1H-pyrazol-4-yl}propoxy)phenyl]acetic acid]	122 to 123
COc1cccc(CC(=O)O)c1OCCCc1cn(-c2ccc(NS(C)(=O)=O)cn2)nc1C(C)C [Example 269, (3-methoxy-2-{3-[3-isopropyl-1-(5-methylsulfonylamino-2-pyridyl)-1H-pyrazol-4-yl]propoxy}phenyl)acetic acid]	176 to 177
CCc1cnc(-n2cc(CCCOc3c(CC(=O)O)cccc3OC)c(C(C)C)n2)nc1 [Example 276, (2-{3-[1-(5-ethylpyrimidin-2-yl)-3-isopropyl-1H-pyrazol-4-yl]propoxy}-3-methoxyphenyl)acetic acid]	103 to 104
CCOc1nn(-c2ccc(C(F)(F)F)cn2)cc1CCOc1cc(CC(=O)O)n(C)n1 [Example 284, [3-(2-{3-ethoxy-1-[5-(trifluoromethyl)-2-pyridinyl]-1H-pyrazol-4-yl}ethoxy)-1-methyl-1H-pyrazol-5-yl]acetic acid]	156 to 158
CCOc1cc(OCCCc2cn(-c3cc(C(F)(F)F)ccn3)nc2OCC)ccc1CCC(=O)OC [Example 285, methyl 3-[2-ethoxy-4-(3-{3-ethoxy-1-[4-(trifluoromethyl)-2-pyridinyl]-1H-pyrazol-4-yl}propoxy)phenyl]propanoate]	79 to 81
CCOc1nn(-c2cc(C(F)(F)F)ccn2)cc1CCCOc1ccc(CCC(=O)O)cc1OC [Example 287, 3-[4-(3-{3-ethoxy-1-[4-(trifluoromethyl)-2-pyridinyl]-1H-pyrazol-4-yl}propoxy)-3-methoxyphenyl]propanoic acid]	111 to 112
CCOc1nn(-c2cc(C(F)(F)F)ccn2)cc1CCCOc1ccccc1CC(=O)O [Example 288, [2-(3-{3-ethoxy-1-[4-(trifluoromethyl)-2-pyridinyl]-1H-pyrazol-4-yl}propoxy)phenyl]acetic acid]	121 to 122
